{"source": "patent EP0091796A1", "about": "“Process for removing 1-sulfonyl groups from benzimidazoles” (ELI LILLY AND COMPANY, priority 1982, dated 1983)", "assay": "pKa determination in 66% DMF/H2O", "details": "for pKa: 66% dmf/h2o; for pK: solvent not given", "data": [{"smiles": "CON=C(c1ccccc1)c1ccc2nc(N)[nH]c2c1", "note": "[Example 1, 2-amino-5(6)-methoximephenylbenzimidazole]", "values": [{"measurement": "pKa", "setting": "single or first (lower) pKa", "value": 8.88}]}, {"smiles": "CC=C(c1ccccc1)c1ccc2nc(N)[nH]c2c1", "note": "[Example 2, 2-amino-5(6)-(ethylidenebenz^yl)benzimidazole]", "values": [{"measurement": "pKa", "setting": "single or first (lower) pKa", "value": 6.98}]}, {"smiles": "C/C=C(\\c1ccccc1)c1ccc2nc(N)[nH]c2c1", "note": "[Example 3, trans-2-amino-5(6)-(ethylidenebenzyl)benzimidazole]", "values": [{"measurement": "pKa", "setting": "single or first (lower) pKa", "value": 7.05}]}, {"smiles": "C=C(c1ccccc1)c1ccc2nc(N)[nH]c2c1", "note": "[Example 6, 2-amino-5(6)-(methylidenebenzyl)benzimidazole]", "values": [{"measurement": "pKa", "setting": "single or first (lower) pKa", "value": 6.8}]}, {"smiles": "Nc1nc2cc(C(=O)c3ccccc3)ccc2[nH]1", "note": "[Example 7, 2-amino-5(6)-benzoylbenzimidazole]", "values": [{"measurement": "pK", "setting": "first (lower) printed value", "value": 5.65}, {"measurement": "pK", "setting": "second (higher) printed value", "value": 13.0}]}, {"smiles": "Nc1nc2ccc(C(=O)c3ccccc3)cc2[nH]1", "note": "[Example 8, 2-amino-5(6)-benzoylbenzimidazole]", "values": [{"measurement": "pKa", "setting": "second (higher) printed pKa", "value": 13.2}, {"measurement": "pKa", "setting": "single or first (lower) pKa", "value": 5.7}]}]}
